According to patent US20020019533A1, “PIPERIDINE DERIVATIVES AND ANTI-PLATELET AGENTS CONTAINING THE SAME” (priority 1994, published 2002):

How the values were obtained:
[1] = target: T1, serotonin 2 receptor (Bos taurus, UniProt Q75Z89); test: Binding affinity to the serotonin 2 receptor, [3H]-ketanserin, bovine cerebral cortex membrane; conditions: negative logarithm of Ki, 3 nM [3H]-ketanserin, 25° C., 30 minutes
T1 construct: evaluated using a bovine cerebral cortex membrane sample; from tissue; host or cells: bovine cerebral cortex membranes
T1 sequence (Q75Z89 whole entry): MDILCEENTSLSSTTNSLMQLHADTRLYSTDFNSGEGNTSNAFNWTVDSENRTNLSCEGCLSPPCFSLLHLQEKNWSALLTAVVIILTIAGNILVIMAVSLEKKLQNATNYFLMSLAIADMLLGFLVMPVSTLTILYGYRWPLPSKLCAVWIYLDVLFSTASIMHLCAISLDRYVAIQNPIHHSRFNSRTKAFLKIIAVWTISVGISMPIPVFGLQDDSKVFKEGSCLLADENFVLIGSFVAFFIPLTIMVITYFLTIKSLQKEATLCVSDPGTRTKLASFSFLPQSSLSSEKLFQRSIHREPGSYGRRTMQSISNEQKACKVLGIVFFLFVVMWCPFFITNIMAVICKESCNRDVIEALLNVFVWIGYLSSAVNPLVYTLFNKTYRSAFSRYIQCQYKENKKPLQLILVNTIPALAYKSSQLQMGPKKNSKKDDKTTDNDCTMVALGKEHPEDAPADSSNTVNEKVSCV
Protocol: The binding affinity to the serotonin 2 receptor was evaluated using a bovine cerebral cortex membrane sample. To 200 μl of a bovine membrane sample adjusted to 50 mg (wet weight) membrane/ml were added 200 μl of 3 nM [^3H]-ketanserin and 200 μl of a test compound solution prepared by dissolving a test compound in 1.7% ethanol, followed by mixing. The mixture was incubated at 25° C. for 30 minutes and filtered with a glass filter. The radioactivity trapped on the filter was measured with a liquid scintillation counter. The non-specific binding was defined by 10^−6 M LY53857. The concentration of the test compound which inhibits 50% of the specific binding of [^3H]-ketanserin (i.e., IC50 value) was obtained, and the Ki value was calculated in accordance with the following equation. The results are shown as the negative logarithm of the Ki value (i.e., pKi value). [formula]
In the equation, Ki indicates the dissociation constant and [L] indicates the concentration of [^3H]-ketanserin.

[2] = test system: platelet of SD rats; test: In vitro anti-platelet effect: platelet aggregation induced by ADP + serotonin in rat platelet rich plasma; type: cell-based; conditions: rat PRP, 0.5 μM or 0.8 μM ADP + serotonin, 50% inhibition of the serotonin-caused increase in aggregation
Protocol: The anti-platelet effect due to the serotonin antagonistic activity was measured in vitro using the platelet of SD rats (body weight: about 300 to 400 g, male). Platelet rich plasma (PRP) and platelet poor plasma (PPP) were prepared from blood with 0.38% sodium citrate which was obtained from aorta abdominalis of a rat under diethyl ether anesthesia. The platelet concentration of PRP was adjusted to 5×10^8 platelets/ml by adding PPP. Then, the test compound dissolved in 0.4% aqueous ethanol was added, and the mixture was incubated at 37° C. for 3 minutes. The platelet aggregation induced by addition of 0.5 μM or 0.8 μM adenosine diphosphate (ADP)+ serotonin was measured as an increase in optical transmittance of PRP. The concentration of the test compound which inhibits 50% of the increase in platelet aggregation which is obtained with serotonin without a test compound was measured, and its negative logarithm (pIC50) was calculated.

[3] = test system: head twitch of mouse induced by 5-hydroxytryptophan (5HTP); test: Inhibiting effect on head twitch of mouse induced by 5-hydroxytryptophan (5HTP); type: in vivo, ICR mouse; conditions: oral, 90 minutes before 5HTP (180 mg/kg i.p.); 50% inhibition of the number of head twitches
Protocol: The serotonin antagonistic activity in the central nerve system was evaluated by measuring the inhibiting effect on head twitch of mouse induced by 5-hydroxytryptophan (5HTP) A test compound in an amount of 1, 3, 10, or 30 mg was respectively dissolved in 100 ml of water and, 90 minutes before 5HTP administration, the solution (10 ml/kg body weight) was orally administered to a ICR mouse (body weight: 27 to 32 g, male) fasted from the previous day. As a control, 5% arabic gum was used. Carbidopa (6 mg/kg) was subcutaneously administered and, after 15 minutes, 5HTP (180 mg/kg) was intraperitoneally administered. From the 15 minutes after 5HTP administration, the number of head twitches occurred within 2 minutes were counted. The concentration of the test compound which inhibits 50% of the number of head twitches in the 5% arabic gum administered group was obtained.

[4] = test system: platelet aggregation by serotonin; test: In vivo anti-platelet effect after oral administration: ADP + serotonin induced aggregation of PRP taken 2 hours after dosing; parameters: species or system SD rats; conditions: 2 hours after administration, arabic gum group = 100%, n=3
Protocol: The anti-platelet effect due to the serotonin antagonistic activity was measured in vivo using SD rats (body weight: about 210 to 330 g, male). Two hours after the administration of the test compound, the rat was anesthetized with diethyl ether and platelet rich plasma (PRP) and platelet poor plasma (PPP) were prepared from blood with 0.38% sodium citrate which was obtained from aorta abdominalis of the rat. The platelet concentration of PRP was adjusted to 5×10^8 platelets/ml by adding PPP. Then, the PRP was incubated at 37° C. for 3 minutes, and platelet aggregation induced by addition of 0.7 μM adenosine diphosphate (ADP)+ serotonin was measured as an increase in optical transmittance of PRP. The aggregation occurred by addition of ADP alone and the maximum aggregation ratio by the simultaneous addition of ADP and serotonin were measured with respect to each group, and increase in aggregation caused by serotonin was calculated. The increase in aggregation caused by serotonin in the arabic gum administered group was taken as 100%, and the effect of the test compound was judged using as an index the increase in aggregation caused by the serotonin in the test compound-administered group (n=3).

pKi [1] | pIC50 [2] | SMILES | also measured
8.6 | 7.3 | O=C(NCCN1CCC(=C2c3ccccc3C=Cc3ccccc32)CC1)C1CCNCC1 [Compound 2] | –
– | – | O=CN1CCC(C(=O)NCCN2CCC(=C3c4ccccc4C=Cc4ccccc43)CC2)CC1 [Compound 3] | ID50 [3]: 0.39 mg/kg; Increase in aggregation by serotonin ([4]; 0.1 mg/kg oral): 75.7%; Increase in aggregation by serotonin ([4]; 0.3 mg/kg oral): 57.3%; Increase in aggregation by serotonin ([4]; 1 mg/kg oral): 24.3%; Increase in aggregation by serotonin ([4]; 3 mg/kg oral): 27%; Increase in aggregation by serotonin ([4]; 10 mg/kg oral): −2.7%; Ki [1]: 0.00398 µM; IC50 ([2]; Platelet): 0.0631 µM
8.0 | 6.5 | CC(C)(C)OC(=O)N1CCC(C(=O)NCCN2CCC(=C3c4ccccc4C=Cc4ccccc43)CC2)CC1 [Compound 5] | –
7.9 | 6.6 | CC(=O)NCC(=O)N1CCC(C(=O)NCCN2CCC(=C3c4ccccc4C=Cc4ccccc43)CC2)CC1 [Compound 8] | –
8.6 | 6.6 | NC1CCC(C(=O)NCCN2CCC(=C3c4ccccc4C=Cc4ccccc43)CC2)CC1 (centres unmarked) [Compound 12] | –
– | 7.6 | CCOC(=O)NCCN1CCC(=C2c3ccccc3C=Cc3ccccc32)CC1 [Compound 16] | –
8.3 | 6.4 | CC(=O)NC1(C(=O)NCCN2CCC(=C3c4ccccc4C=Cc4ccccc43)CC2)CCCCC1 [Compound 19] | –
7.8 | 6.5 | O=CNC1(C(=O)NCCN2CCC(=C3c4ccccc4C=Cc4ccccc43)CC2)CCCCC1 [Compound 21] | –
8.2 | 5.8 | CN(C)C(=O)NC1(C(=O)NCCN2CCC(=C3c4ccccc4C=Cc4ccccc43)CC2)CCCCC1 [Compound 22] | –
– | 7.6 | NCCCC(=O)NCCN1CCC(=C2c3ccccc3C=Cc3ccccc32)CC1 [Compound 23] | –
9.8 | 7.2 | O=CNCCCC(=O)NCCN1CCC(=C2c3ccccc3C=Cc3ccccc32)CC1 [Compound 24] | –
9.2 | 6.6 | CC(=O)NCCCC(=O)NCCN1CCC(=C2c3ccccc3C=Cc3ccccc32)CC1 [Compound 25] | –
– | 7.2 | CC(C)(C)OC(=O)NCCCC(=O)NCCN1CCC(=C2c3ccccc3C=Cc3ccccc32)CC1 [Compound 26] | –
9.2 | 6.9 | CN(C)C(=O)NCCCC(=O)NCCN1CCC(=C2c3ccccc3C=Cc3ccccc32)CC1 [Compound 27] | –
– | 6.6 | CNCCCC(=O)NCCN1CCC(=C2c3ccccc3C=Cc3ccccc32)CC1 [Compound 28] | –
– | 7.1 | CN(CCCC(=O)NCCN1CCC(=C2c3ccccc3C=Cc3ccccc32)CC1)C(=O)OC(C)(C)C [Compound 29] | –
8.8 | – | CC(C)(C)OC(=O)NCCCN1CCC(=C2c3ccccc3C=Cc3ccccc32)CC1 [Compound 31] | –
– | – | CN1CCC(=C2c3ccccc3C=Cc3ccccc32)CC1 [cycloheptadine, reference compound] | ID50 [3]: 0.12 mg/kg

SMILES | pKi [1] | pIC50 [2] | also measured
O=CN1CCC(C(=O)NCCN2CCC(=C3c4ccccc4C=Cc4ccccc43)CC2)CC1 [Compound 6] | – | 6.9 | –
O=C(NCCN1CCC(=C2c3ccccc3C=Cc3ccccc32)CC1)C1CCCCN1 (centres unmarked) [Compound 9] | 7.8 | 7.1 | Increase in aggregation by serotonin ([4]; 0.3 mg/kg oral): 57.3%
O=CN1CCN(C(=O)NCCN2CCC(=C3c4ccccc4C=Cc4ccccc43)CC2)CC1 [Compound 11] | 8.8 | 7.0 | –
CC(C)(C)OC(=O)NCCN1CCC(=C2c3ccccc3C=Cc3ccccc32)CC1 [Compound 17] | – | 7.0 | Increase in aggregation by serotonin ([4]; 0.3 mg/kg oral): 50.7%
NC1(C(=O)NCCN2CCC(=C3c4ccccc4C=Cc4ccccc43)CC2)CCCCC1 [Compound 18] | 8.9 | 7.3 | Increase in aggregation by serotonin ([4]; 0.3 mg/kg oral): 94.9%
CC(C)(C)OC(=O)NC1(C(=O)NCCN2CCC(=C3c4ccccc4C=Cc4ccccc43)CC2)CCCCC1 [Compound 20] | 8.0 | 6.3 | –
C1=Cc2ccccc2C(=C2CCN(CCCCN3CCOCC3)CC2)c2ccccc21 [Compound 41] | 8.2 | 6.9 | Increase in aggregation by serotonin ([4]; 0.3 mg/kg oral): 91.5%
C1=Cc2ccccc2C(=C2CCN(CCCCN3CCSCC3)CC2)c2ccccc21 [Compound 42] | 8.7 | 6.6 | –
